From US9221834B2 (Merck Sharp & Dohme Corp., priority 2010, dated 2015)

Each molecule was assayed against T1, recombinant CETP (rCETP) (Homo sapiens, UniProt P11597) (assay: RTA assay using recombinant CETP (2% RTA)). Settings: RTA assay in 2% human serum; read-out: IC50.
T1 sequence (P11597 18-493): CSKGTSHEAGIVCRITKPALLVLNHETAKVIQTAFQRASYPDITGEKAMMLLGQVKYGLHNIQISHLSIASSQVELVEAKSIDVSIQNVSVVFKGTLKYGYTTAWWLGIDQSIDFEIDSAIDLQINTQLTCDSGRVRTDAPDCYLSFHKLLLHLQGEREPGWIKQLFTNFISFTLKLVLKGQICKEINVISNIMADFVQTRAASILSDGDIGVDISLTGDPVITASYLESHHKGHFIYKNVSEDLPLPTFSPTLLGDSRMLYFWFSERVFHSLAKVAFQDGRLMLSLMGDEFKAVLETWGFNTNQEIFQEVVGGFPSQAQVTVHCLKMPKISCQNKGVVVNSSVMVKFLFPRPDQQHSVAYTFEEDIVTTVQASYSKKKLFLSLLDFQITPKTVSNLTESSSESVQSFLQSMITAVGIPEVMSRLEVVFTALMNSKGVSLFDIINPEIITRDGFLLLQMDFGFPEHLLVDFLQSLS
Assay type: biochemical
Protocol: In Vitro Radioactive Assays of CETP-Catalyzed CE and TG Transfer (RTA Assay)
Reagents and sources are: [3H] cholesteryl oleate (GE #TRK.886), [3H]
Both assays measure the transfer of [3H] cholesteryl oleate or [3H]triolein from exogenous LDL to HDL.
After a brief vortex, the solution is sonicated until clear and mixed with 20 mL of fresh human serum. The mixture is incubated overnight at 37° C. […] Once isolated the particles are dialyzed 3× in CETP buffer (50 mM Tris, pH 7.4, 100 mM NaCl, 1 mM EDTA). Human HDL is purchased from Intracel and used as the acceptor particles.
Transfer assays are performed in a 96-well v-bottom polypropylene plate. […] 1 μL of each test compound diluted in DMSO is added to 47 μL of assay cocktail per well and incubated at 37° C. for 1 hour. To initiate the transfer reaction, 2 μL radiolabeled LDL is added. After an additional 60 min of incubation at 37° C., the transfer action is terminated by precipitation of LDL with an equal volume of 20% W/V PEG 8000. The plates are centrifuged at 2000 rpm for 30 minutes at 4° C. A 40 μL aliquot of the HDL-containing supernatant is transferred to a Packard Optiplate with 200 μL of MicroScint 20. After mixing, plates are counted by liquid scintillation. Counts present in the supernatant for blanks (wells containing only HDL acceptor, CETP buffer and DMSO) are subtracted from those containing test compounds and used to correct for non-specific transfer.
Comparison of the counts of samples with inhibitors to an uninhibited (DMSO only) positive control yield a percent inhibition. A plot of percent inhibition vs. log of inhibitor concentration, fit to a Sigmoidal 4 parameter equation is used to calculate IC50.

Question: How did the IC50 turn out when `COc1ccc([C@H]2CC[C@H](C(=O)O)CC2)cc1-c1ccc(N2CCC2)nc1CN1C(=O)O[C@H](c2cc(F)c(F)c(F)c2)[C@@H]1C` [Example 101] was run?
Answer: 37 nM

Question: `COc1ccc([C@H]2C[C@@H]2C(=O)O)cc1-c1ccc(N2CCC2)nc1CN1C(=O)O[C@H](c2cc(C(F)(F)F)cc(C(F)(F)F)c2)[C@@H]1C` [Example 75] was tested. Which IC50 did it give?
Answer: 9 nM

Question: Which IC50 does the source give for `CCOC(=O)[C@@H]1C[C@H]1c1ccc(OC)c(-c2ccc(N3CCC3)nc2CN2C(=O)O[C@H](c3cc(C(F)(F)F)cc(C(F)(F)F)c3)[C@@H]2C)c1` [Example 3] here?
Answer: 6 nM

Question: For `C[C@H]1[C@@H](c2cc(C(F)(F)F)cc(C(F)(F)F)c2)OC(=O)N1Cc1nc(N2CCC2)ncc1-c1cc([C@H]2CC[C@H](C(=O)O)CC2)ccc1Cl` [Example 173], which IC50 is on record?
Answer: 21 nM

Question: `COc1ccc([C@@H]2C[C@H]2C(=O)O)cc1-c1c(C)cc(N2CCC2)nc1CN1C(=O)O[C@H](c2cc(C(F)(F)F)cc(C(F)(F)F)c2)[C@@H]1C` [Example 68] was tested. Which IC50 did it give?
Answer: 4 nM

Question: How did the IC50 turn out when `COC(=O)c1ccc(-c2ccc(OC)c(-c3cnc(N4CC(F)(F)C4)nc3CN3C(=O)O[C@H](c4cc(C(F)(F)F)cc(C(F)(F)F)c4)[C@@H]3C)c2)c(C)c1` [Example 131] was run?
Answer: 10 nM

Question: `COc1ccc(CCC(=O)O)cc1-c1ccc(N2CCC2)nc1CN1C(=O)O[C@H](c2cc(C(F)(F)F)cc(C(F)(F)F)c2)[C@@H]1C` [Example 60, 3-{3-[6-Azetidin-1-yl-2-({(4S,5R)-5-[3,5-bis(trifluoromethyl)phenyl]-4-methyl-2-oxo-1,3-oxazolidin-3-yl}methyl)pyridin-3-yl]-4-methoxyphenyl}propanoic acid] was tested. Which IC50 did it give?
Answer: 11 nM

Question: With `COC(=O)CCc1ccc(OC)c(-c2ccc(N3CCCC3)nc2CN2C(=O)O[C@H](c3cc(C(F)(F)F)cc(C(F)(F)F)c3)[C@@H]2C)c1` [Example 2] as the molecule, how does the IC50 read?
Answer: 33 nM

Question: How did the IC50 turn out when `COc1ccc([C@H]2CC[C@H](C#N)CC2)cc1-c1ccc(N2CCC2)nc1CN1C(=O)O[C@H](c2cc(C)cc(C)c2)[C@@H]1C` [Example 255] was run?
Answer: 395 nM

Question: For `COC(=O)c1scc(-c2ccc(OC)c(-c3cc(Br)c(N4CCC4)nc3CN3C(=O)O[C@H](c4cc(C(F)(F)F)cc(C(F)(F)F)c4)[C@@H]3C)c2)c1C` [Example 50], which IC50 is on record?
Answer: 15 nM

Question: How did the IC50 turn out when `COc1ccc([C@H]2CC[C@H](C(N)=O)CC2)cc1-c1ccc(N2CCC2)nc1CN1C(=O)O[C@H](c2cc(C)cc(C)c2)[C@@H]1C` [Example 253, trans-4-[3-(6-azetidin-1-yl-2-{[(4S,5R)-5-(3,5-dimethylphenyl)-4-methyl-2-oxo-1,3-oxazolidin-3-yl]methyl}pyridin-3-yl)-4-methoxyphenyl]cyclohexanecarboxamide] was run?
Answer: 23 nM

Question: `COc1ccc(-c2cnc(C(=O)O)cn2)cc1-c1ccc(N2CCC2)nc1CN1C(=O)O[C@H](c2cc(C(F)(F)F)cc(C(F)(F)F)c2)[C@@H]1C` [Example 95] was tested. Which IC50 did it give?
Answer: 34 nM

Question: For `COc1ccc([C@H]2CC[C@H](C(=O)OC)CC2)cc1-c1ccc(N2CCC2)nc1CN1C(=O)O[C@H](c2cc(C(F)(F)F)cc(C(F)(F)F)c2)[C@@H]1C` [Example 9], which IC50 is on record?
Answer: 15 nM

Question: Which IC50 does the source give for `COC(=O)c1ccc(-c2ccc(OC)c(-c3ccc(N4CCC4)nc3CN3C(=O)O[C@H](c4cc(C(F)(F)F)cc(C(F)(F)F)c4)[C@@H]3C)c2)o1` [Example 47, Methyl 5-{3-[6-azetidin-1-yl-2-({(4S,5R)-5-[3,5-bis(trifluoromethyl)phenyl]-4-methyl-2-oxo-1,3-oxazolidin-3-yl}methyl)pyridin-3-yl]-4-methoxyphenyl}-2-furoate] here?
Answer: 34 nM

Question: `COc1ccc([C@H]2C[C@H](C(=O)O)C2)cc1-c1ccc(N2CCC2)nc1CN1C(=O)O[C@H](c2cc(C(F)(F)F)cc(C(F)(F)F)c2)[C@@H]1C` [Example 90] was tested. Which IC50 did it give?
Answer: 6 nM

Question: `COC(=O)c1ccc(-c2cc(-c3ccc(N4CCC4)nc3CN3C(=O)O[C@H](c4cc(F)cc(F)c4)[C@@H]3C)c(OC)cc2F)c(C)c1` [Example 21] was tested. Which IC50 did it give?
Answer: 22 nM

Question: How did the IC50 turn out when `COc1ccc([C@H]2C[C@@H](C(=O)OC)C2)cc1-c1ccc(N2CCC2)nc1CN1C(=O)O[C@H](c2cc(C(F)(F)F)cc(C(F)(F)F)c2)[C@@H]1C` [Example 23] was run?
Answer: 18 nM

Question: Which IC50 does the source give for `CCc1ccc([C@@H]2C[C@H]2C(=O)O)cc1-c1ccc(N2CCC2)nc1CN1C(=O)O[C@H](c2cc(C(F)(F)F)cc(C(F)(F)F)c2)[C@@H]1C` [Example 88] here?
Answer: 9 nM

Question: With `COc1ccc([C@H]2CC[C@H](C(=O)O)CC2)cc1-c1cnc(N2CC(OC)C2)nc1CN1C(=O)O[C@H](c2cc(C(F)(F)F)cc(C(F)(F)F)c2)[C@@H]1C` [Example 186] as the molecule, how does the IC50 read?
Answer: 137 nM

Question: Which IC50 does the source give for `COc1ccc(Cc2ncc[nH]2)cc1-c1ccc(N2CCC2)nc1CN1C(=O)O[C@H](c2cc(C(F)(F)F)cc(C(F)(F)F)c2)[C@@H]1C` [Example 267, (4S,5R)-3-({6-azetidin-1-yl-3-[5-(1H-imidazol-2-ylmethyl)-2-methoxyphenyl]pyridin-2-yl}methyl)-5-[3,5-bis(trifluoromethyl)phenyl]-4-methyl-1,3-oxazolidin-2-one] here?
Answer: 67 nM

Question: Which IC50 does the source give for `CCOC(=O)c1cc(C)c(-c2ccc(OC)c(-c3ccc(N4CCC4)nc3CN3C(=O)O[C@H](c4cc(C(F)(F)F)cc(C(F)(F)F)c4)[C@@H]3C)c2)n1C` [Example 56] here?
Answer: 5 nM

Question: With `COc1ccc(CO)cc1-c1ccc(N2CCC2)nc1CN1C(=O)O[C@H](c2cc(C(F)(F)F)cc(C(F)(F)F)c2)[C@@H]1C` [Example 258] as the molecule, how does the IC50 read?
Answer: 7 nM

Question: `COC(=O)CCc1ccc(OC)c(-c2cnc(N3CC(OC)C3)nc2CN2C(=O)O[C@H](c3cc(C(F)(F)F)cc(C(F)(F)F)c3)[C@@H]2C)c1` [Example 140, Methyl 3-{3-[4-({(4S,5R)-5-[3,5-bis(trifluoromethyl)phenyl]-4-methyl-2-oxo-1,3-oxazolidin-3-yl}methyl)-2-(3-methoxyazetidin-1-yl)pyrimidin-5-yl]-4-methoxyphenyl}propanoate] was tested. Which IC50 did it give?
Answer: 344 nM

Question: Which IC50 does the source give for `COC(=O)[C@H]1CC[C@H](c2ccc(Cl)c(-c3cnc(N4CC(F)(F)C4)nc3CN3C(=O)O[C@H](c4cc(C(F)(F)F)cc(C(F)(F)F)c4)[C@@H]3C)c2)CC1` [Example 147] here?
Answer: 94 nM

Question: Which IC50 does the source give for `CCOC(=O)C[C@@H]1CCc2cc(OC)c(-c3cnc(N4CC(F)(F)C4)nc3CN3C(=O)O[C@H](c4cc(C(F)(F)F)cc(C(F)(F)F)c4)[C@@H]3C)cc21` [Example 130] here?
Answer: 32 nM

Question: With `COC(=O)CCc1ccc(OC2CC2)c(-c2ccc(N3CCC3)nc2CN2C(=O)O[C@H](c3cc(C(F)(F)F)cc(C(F)(F)F)c3)[C@@H]2C)c1` [Example 213] as the molecule, how does the IC50 read?
Answer: 14 nM

Question: `C[C@H]1[C@@H](c2cc(C(F)(F)F)cc(C(F)(F)F)c2)OC(=O)N1Cc1nc(N2CCC2)ccc1-c1cc(CCCO)ccc1OC1CC1` [Example 260] was tested. Which IC50 did it give?
Answer: 12 nM

Question: Which IC50 does the source give for `CCOC(=O)C[C@@H]1CCc2cc(OC)c(-c3cnc(N4CCC4)nc3CN3C(=O)O[C@H](c4cc(C(F)(F)F)cc(C(F)(F)F)c4)[C@@H]3C)cc21` [Example 126] here?
Answer: 134 nM

Question: How did the IC50 turn out when `COc1ccc(CCC(N)=O)cc1-c1ccc(N2CCC2)nc1CN1C(=O)O[C@H](c2cc(C)cc(C)c2)[C@@H]1C` [Example 249, 3-[3-(6-azetidin-1-yl-2-{[(4S,5R)-5-(3,5-dimethylphenyl)-4-methyl-2-oxo-1,3-oxazolidin-3-yl]methyl}pyridin-3-yl)-4-methoxyphenyl]propanamide] was run?
Answer: 105 nM

Question: Which IC50 does the source give for `COc1ccc(C2CCC(O)C2)cc1-c1ccc(N2CCC2)nc1CN1C(=O)O[C@H](c2cc(C(F)(F)F)cc(C(F)(F)F)c2)[C@@H]1C` (mixture of isomers) [Example 263] here?
Answer: 5 nM

Question: `COc1ccc(CCC(=O)O)cc1-c1c(C)cc(N2CCC2)nc1CN1C(=O)O[C@H](c2cc(C(F)(F)F)cc(C(F)(F)F)c2)[C@@H]1C` [Example 61, 3-{3-[6-Azetidin-1-yl-2-({(4S,5R)-5-[3,5-bis(trifluoromethyl)phenyl]-4-methyl-2-oxo-1,3-oxazolidin-3-yl}methyl)-4-methylpyridin-3-yl]-4-methoxyphenyl}propanoic acid] was tested. Which IC50 did it give?
Answer: 5 nM

Question: With `COc1ccc([C@H]2CC[C@H](C(N)=O)CC2)cc1-c1ccc(N2CCC2)nc1CN1C(=O)O[C@H](c2cccc(C(F)(F)F)c2)[C@@H]1C` [Example 251] as the molecule, how does the IC50 read?
Answer: 24 nM

Same assay, conditions: value printed with the example; serum level not stated there; read-out: RTA

Question: How did the IC50 turn out when `COc1cc(F)c(C(C)C)cc1-c1cnc(N2CC(F)C2)nc1CN1C(=O)O[C@H](c2cc(C3CC3)cc(C(F)(F)F)c2)[C@@H]1C` [Example 303, (4S,5R)-5-[3-cyclopropyl-5-(trifluoromethyl)phenyl]-3-({2-(3-fluoroazetidin-1-yl)-5-[4-fluoro-2-methoxy-5-(propan-2-yl)phenyl]pyrimidin-4-yl}methyl)-4-methyl-1,3-oxazolidin-2-one] was run?
Answer: 98 nM
